Reference: patent US8802597B2, “Herbicidal pyrimidines” (E I du Pont de Nemours and Company, priority 2003, dated 2014)

Key:
Assay type in all cases: in vivo
[1] = test system: wheat (Triticum aestivum); experiment: Test C postemergence; settings: for Wheat plant response rating: scale 0 to 100 (0 no effect, 100 complete control)
In short: (§1)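 Greenhouse herbicide screen, visual readout. Compound in solvent/surfactant applied preemergence at planting or postemergence to 1- to 4-leaf plants; assessed at 12–14 days on a 0–100 control scale.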

[2] = test system: Italian ryegrass (Lolium multiflorum); experiment: Test C postemergence; settings: for Ryegrass, Italian plant response rating: scale 0 to 100 (0 no effect, 100 complete control)
In short: as §1

[3] = test system: windgrass (Apera spica-venti); experiment: Test C postemergence; settings: for Windgrass plant response rating: scale 0 to 100 (0 no effect, 100 complete control)
In short: as §1

[4] = test system: blackgrass (Alopecurus myosuroides); experiment: Test C postemergence
In short: as §1

[5] = test system: winter barley (Hordeum vulgare); experiment: Test C postemergence
In short: as §1

[6] = test system: wild oat (Avena fatua); experiment: Test C postemergence; settings: for Oat, Wild plant response rating: scale 0 to 100 (0 no effect, 100 complete control)
In short: as §1

[7] = test system: downy brome (Bromus tectorum); experiment: Test C postemergence
In short: as §1

[8] = test system: canarygrass (Phalaris minor); experiment: Test C postemergence
In short: as §1

[9] = test system: green foxtail (Setaria viridis); experiment: Test C postemergence; settings: for Foxtail, Green plant response rating: scale 0 to 100 (0 no effect, 100 complete control)
In short: as §1

[10] = test system: goosegrass (Eleusine indica); experiment: Test C pre/postemergence; settings: for Plant response rating (scale of 0 to 100), Goosegrass / Goosegrass plant response rating: Postemergence; for Goosegrass plant response rating: scale 0 to 100 (0 no effect, 100 complete control); for Plant response rating, Goosegrass: Preemergence
In short: as §1

[11] = test system: Surinam grass (Brachiaria decumbens); experiment: Test C pre/postemergence; settings: for Plant response rating, Surinam Grass: Preemergence
In short: as §1

[12] = test system: corn (Zea mays); experiment: Test C pre/postemergence; settings: for Plant response rating (scale of 0 to 100), Corn / Corn plant response rating: Postemergence; for Corn plant response rating: scale 0 to 100 (0 no effect, 100 complete control); for Plant response rating, Corn: Preemergence
In short: as §1

[13] = 62 g ai/ha, scale 0 to 100 (0 no effect, 100 complete control)
[14] = 16 g ai/ha, scale 0 to 100, 0 no effect, 100 complete control
[15] = 31 g ai/ha, scale 0 to 100, 0 no effect, 100 complete control
[16] = 62 g ai/ha, scale 0 to 100, 0 no effect, 100 complete control

COC(=O)c1nc(C2CC2)nc(N=CN(C)C)c1Br [Compound 19]
Plant response rating (scale of 0 to 100), Wheat ([1]; 16 g ai/ha): 10 | Plant response rating (scale of 0 to 100), Wheat ([1]; 31 g ai/ha): 30 | Wheat plant response rating ([1]; 62 g ai/ha): 40 | Wheat plant response rating ([1]; 125 g ai/ha): 45 | Plant response rating (scale of 0 to 100), Ryegrass, Italian ([2]; 16 g ai/ha): 65 | Plant response rating (scale of 0 to 100), Ryegrass, Italian ([2]; 31 g ai/ha): 65 | Ryegrass, Italian plant response rating ([2]; 62 g ai/ha): 65 | Ryegrass, Italian plant response rating ([2]; 125 g ai/ha): 70 | Plant response rating (scale of 0 to 100), Windgrass ([3]; 16 g ai/ha): 40 | Plant response rating (scale of 0 to 100), Windgrass ([3]; 31 g ai/ha): 40 | Windgrass plant response rating ([3]; 62 g ai/ha): 60 | Windgrass plant response rating ([3]; 125 g ai/ha): 60 | Plant response rating (scale of 0 to 100), Blackgrass ([4]; 16 g ai/ha): 55 | Plant response rating (scale of 0 to 100), Blackgrass ([4]; 31 g ai/ha): 60 | Blackgrass plant response rating [4, 13]: 65 | Plant response rating, Blackgrass ([4]; 125 g ai/ha, scale 0 to 100): 65 | Plant response rating (scale of 0 to 100), Barley ([5]; 16 g ai/ha): 25 | Plant response rating (scale of 0 to 100), Barley ([5]; 31 g ai/ha): 25 | Barley plant response rating [5, 13]: 35 | Plant response rating, Barley ([5]; 125 g ai/ha, scale 0 to 100): 45 | Plant response rating (scale of 0 to 100), Oat, Wild ([6]; 16 g ai/ha): 40 | Plant response rating (scale of 0 to 100), Oat, Wild ([6]; 31 g ai/ha): 40 | Oat, Wild plant response rating ([6]; 62 g ai/ha): 60 | Oat, Wild plant response rating ([6]; 125 g ai/ha): 65 | Plant response rating (scale of 0 to 100), Bromegrass, Downy ([7]; 16 g ai/ha): 0 | Plant response rating (scale of 0 to 100), Bromegrass, Downy ([7]; 31 g ai/ha): 0 | Bromegrass, Downy plant response rating [7, 13]: 50 | Plant response rating, Bromegrass, Downy ([7]; 125 g ai/ha, scale 0 to 100): 60 | Plant response rating (scale of 0 to 100), Canarygrass ([8]; 16 g ai/ha): 45 | Plant response rating (scale of 0 to 100), Canarygrass ([8]; 31 g ai/ha): 60 | Canarygrass plant response rating [8, 13]: 60 | Plant response rating, Canarygrass ([8]; 125 g ai/ha, scale 0 to 100): 65 | Plant response rating (scale of 0 to 100), Foxtail, Green ([9]; 16 g ai/ha): 30 | Plant response rating (scale of 0 to 100), Foxtail, Green ([9]; 31 g ai/ha): 35 | Foxtail, Green plant response rating ([9]; 62 g ai/ha): 45 | Foxtail, Green plant response rating ([9]; 125 g ai/ha): 60 | Plant response rating (scale of 0 to 100), Goosegrass ([10]; 16 g ai/ha): 0 | Plant response rating (scale of 0 to 100), Goosegrass ([10]; 31 g ai/ha): 0 | Goosegrass plant response rating ([10]; 62 g ai/ha): 0 | Goosegrass plant response rating ([10]; 125 g ai/ha): 0 | Plant response rating, Goosegrass [10, 14]: 0 | Plant response rating, Goosegrass [10, 15]: 0 | Plant response rating, Goosegrass [10, 16]: 0 | Plant response rating, Goosegrass ([10]; 125 g ai/ha, scale 0 to 100): 0 | Plant response rating (scale of 0 to 100), Surinam Grass ([11]; Postemergence, 16 g ai/ha): 0 | Plant response rating (scale of 0 to 100), Surinam Grass ([11]; Postemergence, 31 g ai/ha): 25 | Surinam Grass plant response rating ([11]; Postemergence, 62 g ai/ha, scale 0 to 100 (0 no effect, 100 complete control)): 45 | Plant response rating, Surinam Grass [11, 14]: 0 | Plant response rating, Surinam Grass [11, 16]: 0 | Plant response rating, Surinam Grass ([11]; 125 g ai/ha, scale 0 to 100): 10 | Plant response rating (scale of 0 to 100), Corn ([12]; 16 g ai/ha): 0 | Plant response rating (scale of 0 to 100), Corn ([12]; 31 g ai/ha): 0 | Corn plant response rating ([12]; 62 g ai/ha): 0 | Corn plant response rating ([12]; 125 g ai/ha): 35 | Plant response rating, Corn [12, 14]: 0 | Plant response rating, Corn [12, 15]: 0 | Plant response rating, Corn [12, 16]: 0 | Plant response rating, Corn ([12]; 125 g ai/ha, scale 0 to 100): 0
